Converted amounts (≈) assume the structure as drawn. Peptide text beside a SMILES is read from it.
Assays:
[1] = test system: Escherichia coli ATCC 25922; assay: microbe, parasite or virus in culture; type: cell-based; conditions: ATCC25922, 37° C., 20 hours
Procedure: ATP (%) of the antibacterial activity was measured in the same manner as mentioned above, and the “minimum inhibitory concentration (MIC)” was measured as follows. MIC is the lowest concentration of an agent that may inhibit the growth of a bacterium. MIC is used as a parameter for the efficacy of an antibacterial agent, for the strength of bacterial sensitivity, or the like. The bacteria can grow (proliferate) when the concentration is not higher than MIC, and cannot grow when the concentration is higher than MIC. […] (CLSI), but, in this Example, its measurement was carried out by a broth microdilution method in accordance with “M100-S17/M7-A7” (Performance Standards for Antimicrobial Susceptibility Testing; Seventeenth Informational Supplement, Vol. 27 No. 1) published by CLSI on January, 2007. That is, sensitivity test of agents was carried out using a microtiter plate or test tubes. The bacteria were cultured in the liquid media for 4 to 6 hours, and thereafter absorbances at A600 were measured. Bacterial suspensions were diluted with Mueller-Hinton broth (MHB) according to McFarland #0.5. Each strain was added so as to attain about 10^5 CFU/ml (final concentration). Each peptide was prepared to an optional concentration, and the solutions were serially diluted from the concentration. The polypeptide at each concentration stage was added to a microplate or test tubes, and the bacterial suspension was added thereto. […] The plate was incubated at 37° C. for 20 hours, the lowest concentration where bacterial growth was inhibited was regarded as the minimum inhibitory concentration. With respect to each strain, Escherichia coli: ATCC 25922 (Escherichia coli ATCC 25922), Pseudomonas aeruginosa: ATCC 27853 (Pseudomonas aeruginosa ATCC 27853), Staphylococcus aureus: ATCC29213 (Staphylococcus aureus ATCC29213), Klebsiella pneumoniae: JCM 1662 (Klebsiella pneumoniae JCM 1662), enterobacteria (1): JCM 1232 (Enterobacter cloacae JCM 1232), enterobacteria (2): JCM 1235 (Enterobacter aerogenes JCM 1235), and Staphylococcus epidermidis: JCM 2414 (Staphylococcus epidermidis JCM 2414), were used. […] As the concentrations of the agents in ATP assay, the concentrations as described in the Tables were used.

[2] = test system: human vascular endothelial cells and fibroblast cells (co-culture, Angiogenesis Kit KZ-1000); conditions: 10 μg/mL, length of lumina
Procedure: Using AG30-5C as a positive control, the angiogenesis-inducing activity of SR-1 and SR-2 was measured. […] As a negative control, polypeptide-free group (Control) was used.
Cells were cultured at 37° C. under 5% CO2 in a 24-well plate using the special media to which the polypeptide was added. The medium was replaced with a medium containing the same polypeptide on day 4, day 7 and day 9 of culture. On day 11 from the beginning of the culture, the medium was removed and staining was performed using a kit for staining lumina (for CD31 antibody staining) according to the following procedure.
The primary antibody (mouse anti-human CD31 antibody) was 4000-fold diluted with a blocking solution (Dulbecco's phosphate buffered saline (PBS(−)) containing 1% BSA). To each well, 0.5 mL of this primary antibody solution was added, and the plate was incubated for 60 minutes at 37° C. After the completion of the incubation, each well was washed totally 3 times with 1 mL of the blocking solution.
Then, 0.5 mL of a secondary antibody solution (goat anti-mouse IgG/alkaline phosphatase conjugate) 500-fold diluted with the blocking solution was added to each well. The plate was incubated for 60 minutes at 37° C., and thereafter each well was washed 3 times with 1 mL of distilled water. During that period, 2 tablets of BCIP/NBT were dissolved into distilled water, and the obtained solution was filtered through a filter having a pore size of 0.2 μm to prepare a substrate solution. To each well, 0.5 mL of the prepared BCIP/NBT substrate solution was added, and the plate was incubated at 37° C. until the lumina turned to deep purple (typically for 5-10 minutes). After the completion of the incubation, each well was washed 3 times with 1 mL of distilled water. After washing, the washing solution was removed by aspiration, and the plate was left to stand and dry naturally. After drying, photographs of each well were taken under a microscope.
Each of the obtained images was quantified using an angiogenesis quantification software. Computer analysis was carried out on various parameters.

[3] = test system: HWY/slc hairless rats, full-thickness defect infected with Staphylococcus aureus; assay: Healing effect in rat infected-wound model; type: in vivo
Procedure: Referring to Stenberg B D et al. (J Surg Res. 1991 January; 50(1):47-50.) and Hayward P et al. (Am J. Surg. 1992 March; 163(3):288-93.), a rat infected-wound model was produced as described below. […] hairless rats (male, 7-week old, obtained from Japan SLC, Inc.) were used. The day before full-thickness defects were created, the number of leukocytes was measured and cyclophosphamide was administered in tail vein (100 mg/kg). On the next day, the number of leukocytes was counted. Only the individuals in which the number of leukocytes was not more than 5000, were used. […] After administering the test substances, the wound sites were covered with a covering (PERME-ROLL, Nitto Medical Corporation) (day 0). […] Six days after the full-thickness defects were created (day 6), the area where the wounds had still not healed was measured to calculate the ratio of it relative to the area where the wounds were created, and the ratio was regarded as the wound area ratio on day 6.

| Compound | MIC [1] [µg/mL] | angiogenesis-inducing activity compared with AG30-5C [2] | Wound area ratio on day 6 ([3]; SR-1 50 μg, bFGF formulation 3 μg/25 μL, once a day days 0-3) | healing effect on wounds associated with infection ([3]; compared with the bFGF formulation) |
| --- | --- | --- | --- | --- |
| C[C@@H](O)[C@H]1C(=O)N2C(C(=O)O)=C(S[C@@H]3CN[C@H](C(=O)N(C)C)C3)[C@H](C)[C@H]12 [MEPM, meropenem, reference compound] | 0.008 to 0.06 (≈ 0.0209 to 0.156 µM) |  |  |  |
| CC[C@H](C)[C@H](NC(=O)[C@H](CC(C)C)NC(=O)[C@H](CCCCN)NC(=O)[C@H](CC(C)C)NC(=O)[C@@H](N)CCSC)C(=O)N[C@@H](Cc1ccccc1)C(=O)N[C@@H](CC(C)C)C(=O)N[C@@H](Cc1c[nH]cn1)C(=O)N[C@@H](CCCNC(=N)N)C(=O)N[C@@H](CC(C)C)C(=O)N[C@@H](CCCCN)C(=O)N[C@@H](CCCNC(=N)N)C(=O)N[C@@H](CCSC)C(=O)N[C@@H](CCCNC(=N)N)C(=O)N[C@@H](CCCCN)C(=O)N[C@@H](CCCNC(=N)N)C(=O)N[C@@H](CC(C)C)C(=O)N[C@@H](CCCCN)C(=O)N[C@@H](CCCNC(=N)N)C(=O)N[C@@H](CCCCN)C(=O)O [SR-1] (H-MLKLIFLHRLKRMRKRLKRK-OH; N-terminus assumed) |  | higher than AG30-5C | 80.2 | higher healing effect compared with the bFGF formulation |
| CC(C)C[C@H](NC(=O)[C@H](CCCCN)NC(=O)[C@H](CCCNC(=N)N)NC(=O)[C@H](CCCCN)NC(=O)[C@H](CC(C)C)NC(=O)[C@H](CCCNC(=N)N)NC(=O)[C@H](CCCCN)NC(=O)[C@H](CCCNC(=N)N)NC(=O)[C@H](CC(C)C)NC(=O)[C@H](CCCNC(=N)N)NC(=O)[C@H](CCCNC(=N)N)NC(=O)[C@H](CCCCN)NC(=O)[C@H](CC(C)C)NC(=O)[C@H](CCCNC(=N)N)NC(=O)[C@H](Cc1c[nH]cn1)NC(=O)[C@H](CC(C)C)NC(=O)[C@H](Cc1ccccc1)NC(=O)[C@H](CCCNC(=N)N)NC(=O)[C@H](CC(C)C)NC(=O)[C@@H](N)CCC(=O)O)C(=O)N[C@@H](CCCNC(=N)N)C(N)=O [SR-2] (H-ELRFLHRLKRRLRKRLKRKLR-NH2; N-terminus assumed) |  | higher than AG30-5C |  |  |
| NC[C@H]1O[C@H](O[C@H]2[C@H](O)[C@@H](O[C@H]3O[C@H](CO)[C@@H](O)[C@H](N)[C@H]3O)[C@H](N)C[C@@H]2N)[C@H](N)C[C@@H]1O [TOB, tobramycin, reference compound] | 0.25 to 1 (≈ 0.535 to 2.14 µM) |  |  |  |
